In paper PMC9313812, “The Pseudo‐Natural Product Rhonin Targets RHOGDI” (Angewandte Chemie (International Ed. in English), 2022):
Read-outs that look alike come from different tables or passages of the source.

Legend:
C3H10T1/2 cells = assay: Osteoblast differentiation in presence of low or high SAG; format: cell-based, mouse; conditions: low and high concentration of SMO agonist SAG
Experimental: cilia were stained with an antibody against acetylated tubulin. SMO was marked with an anti-SMO antibody and DAPI was used to stain the nuclei. For quantification of cilia, at least 100 cilia per condition and biological replicate were analyzed for the intensity of anti-acetylated tubulin antibody staining. The results of one representative biological replicate are shown and each data point represents the intensity value of one single cilium. Statistical significance was evaluated using an unpaired t-test with a confidence interval of 95 % (p ≤ n.s.). (d and e) Influence Vismodegib (d) or GANT61 (e) on osteoblast diffe rentation of C3H10T1/2 cells in presence of low (0.1 µM) or high (1 µM) concentration of the SMO agonist SAG. Data are mean values of three independent biological replicates (n= 3) ± SD. (f) Fluorescent polarization measurements were performed by titrating 1 μM TAMRA-GDP-bound RAC1 with increasing […]
µM Rhonin. Data are mean values (n = 3) ± SD. (g) Structure of the lysine-reactive probe […]
(§1) (1 picture or pasted object on this page, not shown here)

NIH/3T3 lysate proteins [1] = target: T1, NIH/3T3 lysate proteins (Mus musculus, UniProt Q99PT1); assay: Affinity chromatography (pulldown) with immobilized probes, HRMS label-free quantification and immunoblotting; format: binding; conditions: fold excess enriched with active probe 8 vs inactive probe 9
T1 construct: endogenous in cells; host or cells: NIH/3T3
Experimental: (§2) Supplementary Table S8. List of proteins enriched by the active probe 8 as identified by means of affinity chromatography. […]
(§3) on NHS ester magnetic beads. NIH/3T3 lysate was passed on to the probes and target protein identification was performed employing HRMS analysis as described in the methods section.
(§4) The ratios indicate the fold excess of protein enriched with the active probe 8 as compared to […]
(§5) Apart from filamin –B and –C and RHOGDI1, all enriched proteins were known frequent binders in pulldown assays.
(§6) Protein name Gene symbol Ratio
(§7) RHO GDP-dissociation inhibitor 1 Arhgdia 33
(§8) Guanine nucleotide -binding protein subunit beta -2-like
(§9) 1;Guanine nucleotide -binding protein subunit beta -2-like 1, N- Gnb2l1 6 […]
(§10) ATPase inhibitor, mitochondrial Atpif1 4
(§11) Hsc70-interacting protein St13 4
(§12) Tropomyosin alpha -4 chain Tpm4 4
(§13) Ribosome-recycling factor, mitochondrial Mrrf 3
(§14) (1 picture or pasted object on this page, not shown here) […]
(§15) intensities was performed by densitometry of scanned signals with the aid of image studio software (Version 4.0.21, LI-COR Biosciences, ©2014). […]
(§16) Cell lysate preparation for chemical proteomics
(§17) NIH/3T3 cells were grown to 90-95% confluence and were then detached using cell dissociation solution for 5 min at 37 °C and 5% CO2. Cells were suspended in cell culture medium and pelleted by centrifugation at 250 x g, 5 min at 4 °C. Cell pellets were then washed thrice with ice-cold PBS and lysed in lysis buffer containing 50 mM PIPES, 50 mM NaCl, 5 mM MgCl2, 5 mM EGTA, 0.1 % NP40, 0.1 % Triton X-100, 0.1 % Tween®20, with freshly added 1 mM DTT, EDTA-free protease inhibitors (Complete EDTA-free, Roche) and phosphatase inhibitors (PhosphoSTOP, Roche). To assure complete cell lysis, the suspension was passed through […] cannula 10 times each and incubated on ice for 40 min with intermittent vortexing every five minutes until a homogeneous mixture was obtained.
(§18) The resulting homogenate was centrifuged at 18,000 x g for 30 min at 4 °C and the supernatant was subsequently snap frozen in liquid nitrogen and stored at -80 °C. Total protein content was determined by DC protein assay (Bio-Rad, Germany).
(§19) Affinity chromatography enrichment of compound-bound proteins
(§20) 25 µL N-hydroxysuccinimide magnetic beads (GE Healthcare) were activated with 500 µL 1 mM HCl for 1 min. HCl was replaced by 500 µL coupling buffer (0.15 M triethanolamine, […]
(§21) incubated for 2 h at room temperature with overhead rotation. The residual active groups of N-hydroxysuccinimide magnetic were quenched by alternating incubation with 500 µL block A buffer (0.5 M ethanolamine, 0.5 M NaCl, pH 8.3) and block B buffer (0.1 M sodium acetate, 0.5 M NaCl, pH 4.0) for 5 min three times each. For protein binding, the magnetic beads were equilibrated with 500 µL lysis buffer followed by incubation with 500 µL lysate (protein concentration: 2 mg/mL) 2 h at 4 °C with overhead rotation. In order to wash out non-specifically bound proteins, the beads were first washed with 500 µL lysis buffer containing 25 mM MgCl2 followed by three times washing with 500 µL PBS. Tryptic digestion of bead-bound proteins was carried out in two stages. First, bound proteins were reduced by incubating the beads with 50 µL reducing buffer (1 mM DTT, 8 M urea in 50 mM Tris (pH 7.5)) at 30 °C for 30 min with shaking. Later, the reduced proteins were alkylated by addition of 5.5 µL alkylating solution (1 mM DTT, 50 mM chloroacetamide, 8 M urea in 50 mM Tris pH 7.5) and further incubation in the dark at 30 °C for 30 min while shaking at 350 rpm. The reduced and alkylated proteins were digested by adding 1 µg LysC at 37 °C for 1 h while shaking at 350 rpm. The supernatant was transferred to a new tube and the beads were further incubated with 50 mM Tris-HCl (pH 7.5) containing 1 µg trypsin at 37 °C for 1 h while shaking at 350 rpm.
(§22) Both supernatants were combined together and further digested by adding 2 µg trypsin for 16 h at 37 °C with continuous shaking. The enzymatic digestion was stopped by addition of 2 µL […]

NIH/3T3 lysate proteins [2] = assay: as above; format: binding
Experimental: as §2, §3, §4, §5, §6, §7, §8, §9, §10, §11, §12, §13, §14, §15, §16, §17, §18, §19, §20, §21, §22

RHOGDI1 [3] = target: T2, RHOGDI1 (Homo sapiens, UniProt P52565); assay: Fluorescence polarization binding of probe 10; conditions: fluorescence polarization; read-out: KD (RHOGDI1Δ15)
T2 construct: GST; made in house; host or cells: E. coli (XL1-Blue / BL21)
Experimental: (§23) Fluorescence polarization
(§24) The binding of probe 10 to RHOGDI1-3 was confirmed by fluorescence polarization experiments. RHOGDI1 was titrated against 0.5 µM of the fluorescent Rhonin derivative 10 in buffer containing 20 mM Hepes, pH 7.4, 150 mM NaCl, 5 mM MgCl2, 3 mM DTT and incubated for 1 h. The change in fluorescence polarization was monitored at an excitation / emission wavelengths of 535 nm and 593 nm, respectively. […]
(§25) Protein expression and purification
(§26) RHOGDI1 delta15, RHOGDI1 delta25, RHOGDI1-3 were produced in E. coli (XL1-Blue) as a GST recombinant protein as described previously.[9] In summary, protein were expressed in E.coli BL21 upon addition of IPTG overnight. Cell were collected and lysed in a lysis buffer, containing 30 mM Tris-NaOH pH 7.4, 150 mM NaCl, 1 mM DTT, and 5 mM MgCl2. Cells were further lysed using sonication. After centrifugation (20 min at 20,000 g) of lysate, the clear supernatant was used for purification in an ÄKTAprime system connected to a GSH column […]
(§27) Insect cell purification system was used for expression and purification of prenylated proteins based on an established protocol.[9] Sf9/or TNAO38 insect cells (Sf9 used only for virus generation and amplification) were grown to the level of 1.5×10^6 cells/ml before they were transduced with Baculoviruses encoding genes related to the RHO GTPases. Cells were resuspended in lysis buffer, containing 20 mM HEPES-NaOH pH 7.4, 150 mM NaCl, 2 mM β-mercaptoethanol, 5 mM MgCl2, 0.1 mM GDP, 10 mM imidazole and the optimized detergents including 1% CHAPS and 0.5% sodium cholate .[9] Cells were lysed by s onication in ice. After
T2 sequence (P52565 16-204): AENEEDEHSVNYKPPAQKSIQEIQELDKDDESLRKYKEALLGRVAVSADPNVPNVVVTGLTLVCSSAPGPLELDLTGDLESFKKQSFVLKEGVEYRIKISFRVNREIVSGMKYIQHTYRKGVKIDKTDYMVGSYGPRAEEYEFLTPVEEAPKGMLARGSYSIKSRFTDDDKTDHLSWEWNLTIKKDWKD

RHOGDI1 [4] = target: T3, RHOGDI1 (Homo sapiens, UniProt P52565); assay: Fluorescence polarization binding of probe 10; conditions: fluorescence polarization; read-out: KD (RHOGDI1Δ25)
T3 construct: GST; made in house; host or cells: E. coli (XL1-Blue / BL21)
Experimental: as §23, §24, §25, §26, §27
T3 sequence (P52565 26-204): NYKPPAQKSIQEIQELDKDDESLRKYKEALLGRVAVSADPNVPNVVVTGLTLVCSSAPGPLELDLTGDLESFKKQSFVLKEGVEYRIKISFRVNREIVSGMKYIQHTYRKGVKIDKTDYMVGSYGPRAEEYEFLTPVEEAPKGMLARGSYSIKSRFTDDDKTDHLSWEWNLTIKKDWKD

RHOGDI2 = target: T4, RHOGDI2 (Homo sapiens, UniProt P52566); assay: Fluorescence polarization binding of probe 10
T4 construct: GST; made in house; host or cells: E. coli (XL1-Blue / BL21)
Experimental: as §23, §24, §25, §26, §27

RHOGDI3 = target: T5, RHOGDI3 (Homo sapiens, UniProt Q99819); assay: Fluorescence polarization binding of probe 10
T5 construct: GST; made in house; host or cells: E. coli (XL1-Blue / BL21)
Experimental: as §23, §24, §25, §26, §27

RHOGDI1 [5] = target: RHOGDI1 (Homo sapiens, UniProt P52565); assay: Fluorescence polarization binding of probe 10; conditions: range from Figure 4e; read-out: KD, measured affinity between probe 10 and RHOGDI1
Experimental: as §23, §24, §25, §26, §27
Target sequence in this assay (P52565 2-204): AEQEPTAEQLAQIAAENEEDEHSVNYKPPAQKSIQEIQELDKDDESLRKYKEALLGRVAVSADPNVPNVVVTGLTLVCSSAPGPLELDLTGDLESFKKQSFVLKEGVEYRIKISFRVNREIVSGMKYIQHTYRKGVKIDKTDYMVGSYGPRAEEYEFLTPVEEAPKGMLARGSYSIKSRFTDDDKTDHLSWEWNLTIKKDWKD

PDEδ = target: T6, PDEδ (Homo sapiens, UniProt O43924); assay: Fluorescence polarization, direct binding of probe 10; conditions: 10 nM probe 10, titration of PDEδ
T6 construct: GST (N); made in house; host or cells: E. coli Rosetta 2
Experimental: RHOGDI1 displaced liposome -bound RAC1 from the surface of L1 chip with a koff of 0.016 […]
bound RAC1. Calculated rate constants by mono-exponential fitting of RU decays were 0.02 and 0.032 s-1 for RHOGDI1-mediated RAC1 displacement from the liposomes in the presence of 7a and 7d, respectively. (d) Competition-based fluorescence polarization experiments were performed by titration of 7a against 10 nM fluorescein-labelled atorvastatin and GST-PDEδ.
(e) Fluorescence polarization experiment using 10 nM probe 10 and titration of PDEδ.
as §1
Label-free quantification (LFQ) intensities were logarithmized (log2) and proteins, which were not three times quantified in at least one of the groups, were filtered off. […]
as §23
The binding of probe 10 to RHOGDI1-3 was confirmed by fluorescence polarization experiments. […] The change in fluorescence polarization was monitored at an excitation / emission wavelengths of 535 nm and 593 nm, respectively. […]
To determine the effect of 7a on the binding of RHOGDI1 to non-prenylated RAC1-GDP, fluorescence polarization measurements were performed by titrating 1 µM TAMRA-GDP-bound RAC1 with increasing concentrations of RHOGDI1 in the presence and absence of 50 µM 7a in buffer containing 30 mM Tris-HCl, pH 7.5, 150 mM NaCl, 5 mM MgCl2, 1% DMSO. […]

[6] = fold excess enriched with active probe 8 vs inactive probe 9

T5 sequence (Q99819 whole entry, species assumed): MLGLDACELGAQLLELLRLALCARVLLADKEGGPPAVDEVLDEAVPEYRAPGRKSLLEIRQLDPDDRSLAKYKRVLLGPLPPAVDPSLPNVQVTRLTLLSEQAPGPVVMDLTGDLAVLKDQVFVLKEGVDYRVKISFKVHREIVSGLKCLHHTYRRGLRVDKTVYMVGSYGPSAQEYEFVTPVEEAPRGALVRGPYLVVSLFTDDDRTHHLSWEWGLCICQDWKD
T1 sequence (Q99PT1 2-204): as the sequence (P52565 2-204) above, with V70I, G73R, S80T, V161M, S175N, D200E counted along it
T6 sequence (O43924 whole entry): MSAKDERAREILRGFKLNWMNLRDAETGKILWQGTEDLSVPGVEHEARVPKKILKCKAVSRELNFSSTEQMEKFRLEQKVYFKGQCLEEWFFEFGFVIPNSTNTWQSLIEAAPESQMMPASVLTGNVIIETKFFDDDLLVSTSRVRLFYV
T4 sequence (P52566 whole entry, species assumed): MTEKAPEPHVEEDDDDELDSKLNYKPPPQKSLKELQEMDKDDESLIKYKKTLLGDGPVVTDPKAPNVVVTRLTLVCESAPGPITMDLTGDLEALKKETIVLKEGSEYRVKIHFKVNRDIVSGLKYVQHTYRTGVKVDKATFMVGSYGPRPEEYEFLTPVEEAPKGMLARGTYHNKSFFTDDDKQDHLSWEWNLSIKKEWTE

CS(=O)(=O)c1ccc(C(=O)Nc2ccc(Cl)c(-c3ccccn3)c2)c(Cl)c1 [Vismodegib]
Potency in osteogenesis in presence of 0.1 μM vs 1 μM SAG (in words) (C3H10T1/2 cells): decreased potency

COC(=O)C1(C(CC(=O)c2ccccc2)c2ccc(C(=O)NCCOCCOCCN)cc2)N=C(c2ccc(Br)cc2)C2C(=O)N(C)C(=O)C21 (centres unmarked) [compound 8]
Ratio, RHO GDP-dissociation inhibitor 1 (Arhgdia) (NIH/3T3 lysate proteins [1]): 33 | Ratio, 60S ribosomal protein L32 (Rpl32) (NIH/3T3 lysate proteins [2]; [6]): 9 | Ratio, ATPase inhibitor, mitochondrial (Atpif1) (NIH/3T3 lysate proteins [2]; [6]): 4 | Ratio, Filamin-B (Flnb) (NIH/3T3 lysate proteins [2]; [6]): 36 | Ratio, Filamin-C (Flnc) (NIH/3T3 lysate proteins [2]; [6]): 27 | Ratio, Guanine nucleotide-binding protein subunit beta-2-like 1 (Gnb2l1) (NIH/3T3 lysate proteins [2]; [6]): 6 | Ratio, Hsc70-interacting protein (St13) (NIH/3T3 lysate proteins [2]; [6]): 4 | Ratio, Ribosome-recycling factor, mitochondrial (Mrrf) (NIH/3T3 lysate proteins [2]; [6]): 3 | Ratio, Tropomyosin alpha-4 chain (Tpm4) (NIH/3T3 lysate proteins [2]; [6]): 4 | Enrichment of proteins by probe, immunoblotting after pulldown (in words) (NIH/3T3 lysate proteins [2]; probe 8 compared with control probe 9, NIH/3T3 lysates): selective enrichment of RHOGDI1

COC(=O)C1(C(CC(=O)c2ccccc2)c2ccc(C(=O)NCCOCCOCCNC(=O)CCc3ccc4n3[B-](F)(F)[N+]3=C(c5ccc[nH]5)C=CC3=C4)cc2)N=C(c2ccc(Br)cc2)C2C(=O)N(C)C(=O)C21 (centres unmarked) [compound 10]
Kd (RHOGDI1 [3]): 8.51 µM | Kd (RHOGDI1 [4]): 3.09 µM | Kd (RHOGDI2): 9.08 µM | Kd (RHOGDI3): 11.5 µM | Kd (RHOGDI1 [5]): 3.1 to 8.5 µM | Binding of probe to PDEδ (in words) (PDEδ): binds to PDEδ only at higher concentrations
